Bridge positions count the residues as written; N and C are the ends. Peptide text beside a SMILES is read from it. * marks the point of attachment. AMC = Cc1cc(=O)oc2cc(N*)ccc12; Cbz = O=C(OCc1ccccc1)*
Columns and labels:
[1] = test system: POP; settings: clinical phase 1 and 2; ref López et al., 2013; cited from earlier work
From the text: Ethnomedicinal studies have shown beneficial effects of cyclotide expressing plants in few disease conditions with relationship to POP. For instance, African traditional medicine describes the therapeutic application of Rinorea dentata (P. Beauv.) Kuntze from the Violaceae toward neurodegenerative diseases ([Sonibare and Ayoola, 2015]). […] To make use of these beneficial effects it will be necessary to further investigate P ...

[2] = target: T1, human POP (Homo sapiens, UniProt P48147); assay: POP enzyme kinetics (Michaelis-Menten) with Z-Gly-Pro-amino-coumarin; assay type: biochemical; settings: substrate Z-Gly-Pro-amino-coumarin, optimized assay buffer 20 mM Hepes pH 7.2, 150 mM NaCl, 1 mM EDTA, 0.5 mM DTT
T1 construct: the full-length untagged protein was obtained after site-specific cleavage; GST (N, cleaved yes); made in house; host or cells: Escherichia coli BL21 (D3 [sic] strain)
T1 sequence (P48147 1-710): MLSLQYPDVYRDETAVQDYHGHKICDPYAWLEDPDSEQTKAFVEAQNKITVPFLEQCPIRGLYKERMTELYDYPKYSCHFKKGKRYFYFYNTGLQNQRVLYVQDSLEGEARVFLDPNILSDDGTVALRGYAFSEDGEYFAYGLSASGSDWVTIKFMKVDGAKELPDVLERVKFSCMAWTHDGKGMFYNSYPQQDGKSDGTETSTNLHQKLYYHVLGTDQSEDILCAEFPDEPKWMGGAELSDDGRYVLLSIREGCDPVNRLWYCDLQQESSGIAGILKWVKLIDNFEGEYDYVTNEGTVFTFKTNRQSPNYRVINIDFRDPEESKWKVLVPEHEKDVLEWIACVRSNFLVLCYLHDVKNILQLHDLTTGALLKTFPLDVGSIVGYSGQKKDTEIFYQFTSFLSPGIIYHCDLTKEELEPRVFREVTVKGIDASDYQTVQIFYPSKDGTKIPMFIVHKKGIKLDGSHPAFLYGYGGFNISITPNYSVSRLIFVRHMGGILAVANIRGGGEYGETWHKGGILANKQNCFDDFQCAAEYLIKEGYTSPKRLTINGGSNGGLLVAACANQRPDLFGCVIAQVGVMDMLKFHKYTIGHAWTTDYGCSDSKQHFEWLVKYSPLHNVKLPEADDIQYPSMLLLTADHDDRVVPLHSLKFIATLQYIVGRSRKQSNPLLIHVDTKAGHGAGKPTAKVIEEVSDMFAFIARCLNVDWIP
Protocol: The POP inhibition assays were carried out similarly as recently described ([Hellinger et al., 2015a]; [Retzl et al., 2020]) using a bacterial expressed POP enzyme. Human POP cDNA (accession NM:002726.4) was inserted into a pGEX-6P1 expression vector using the EcoRI and XhoI sites (Genescript, Leiden, Netherlands) and expressed in Escherichia coli (BL21 D3 strain). Protein expression was induced by addition of 0.3–0.5 mM isopropyl-β-D-thiogalactopyranoside (ProteinArk, Rotterdam, Netherlands) at an optical density (OD600) between 0.6 and 0.8 to the bacterial culture and incubated at 25°C under constant shaking. The protein was harvested at an OD600 between 1.4 and 1.5. POP was purified via GST-affinity capture beads. […] The protein concentration was determined with bicinchoninic acid assay (ThermoFisher). […] The protease activity was quantified as fluorescence from the proteolytically cleaved amino-coumarin fluorophore with excitation 380 nm and emission 420 nm on a Biotek Synergy H4 plate reader. The fluorogenic substrate provide elevated fluorescence by the delocalization of electrons after the amide bond cleavage and release of the 7 amino coumarin moiety. […] The percent remaining POP activity was calculated as I = (vi/vo)*100. […]

[3] = Precipitation of the substrate in POP assay; assay type: physicochemical; settings: optimized POP assay conditions, tested between 0.766 µM and 300 µM
Protocol: Supplementary Figure S3. POP purification and optimization of the assay system.Human POP wa s expressed in E. coliand purified as functional protease. The purification steps were analyzed using a Coomassie stained protein gel. Purifi ed POP enzyme is shown in lane 7 after site-specific cleavage with PreS cissi on protease and rel ease of the untagg ed protein (A). Different assay conditions were tested to study the effect of buffer sy stems and pH dependency (B,C), the use of organi c solve nts (D), DTT (E) and NaCl (F) concentration on POP enzyme activ ity. For calculation of POP activ ity the slope in the li near range between 5 and 35 mi n of kinetic measurements were used. With the optim ized conditionsZ-Gly-Pro-amino-coumarin concentrations between 0.766 µM and 300 µM were tested in a kinetic measurement and a con centration dependent increase in sig nal was observed. Above 150 µM substrate concentration no further increase in sig nal was measured due to preci pitation of the substra te (G). Al l data are shown as mean of three biologi cal experim ents and error is shown as ±SEM.
(1 picture or pasted object on this page, not shown here)

[4] = target: T1, human POP; assay: POP inhibition assay, Z-Gly-Pro-amino-coumarin substrate; assay type: biochemical
Protocol: The POP inhibition assays were carried out similarly as recently described ([Hellinger et al., 2015a]; [Retzl et al., 2020]) using a bacterial expressed POP enzyme. […] For enzyme inhibition assays human POP (50 ng/well) was incubated in assay buffer (20 mM Hepes pH 7.2, 150 mM NaCl, 1 mM EDTA, 0.5 mM DTT) together with substrate Z-Gly-Pro-amino-coumarin (final concentration 45 µM) at 37°C for 60 min. […] All experiments were performed in 96-microtiter black bottom plates. Concentration-response inhibition assays were performed with [S] = K m, which is considered a suitable condition for evaluating samples of unknown inhibition mode (e.g. competitive, noncompetitive or uncompetitive reversible inhibition). The protease activity was quantified as fluorescence from the proteolytically cleaved amino-coumarin fluorophore with excitation 380 nm and emission 420 nm on a Biotek Synergy H4 plate reader. The fluorogenic substrate provide elevated fluorescence by the delocalization of electrons after the amide bond cleavage and release of the 7 amino coumarin moiety. All samples for protease inhibition assays were prepared in ddH2O. Concentration-dependent inhibition studies were performed with the peptide enriched extracts (2–1,000 μg/ml) or isolated peptides (0.1–60 µM). For bioassay-guided isolation HPLC fractions were assayed for POP inhibition with three concentrations (4, 20 and 100 μg/ml). Kinetic measurements were carried out to obtain initial velocities in the presence of sample (vi) or enzyme alone (vo) ([Arnison et al., 2013]). The percent remaining POP activity was calculated as I = (vi/vo)*100. A substrate background was used for correction of all measurements. KYP-2047, a specific POP inhibitor, was used as positive control in the assays. […] Four parameter non-linear regression curve fits were obtained using GraphPad Prism v5.0 fitting algorithms with equation Y=Bottom + (Top-Bottom)/(1 + 10^((LogIC50-X)*Hill Slope)) in which X is the log dose and Y the measured response.

[5] = test system: POP; set-up: method as in 3 sources, ref Hellinger et al., 2015a ||| ref Tarrago et al., 2007; Tarragó et al., 2008; Cahlíková et al., 2015 ||| ref Retzl et al., 2020; settings: cited from earlier work; for POP inhibition (in words): alkaloids and flavonoids, ref Tarrago et al., 2007, Tarragó et al., 2008, Cahlíková et al., 2015
Protocol: Previous phytochemical studies identified natural products as inhibitors for POP such as small molecule entities and natural peptides. […] A sequence logo was prepared to compare the amino acid positions for conserved residues or to identify variable positions (Figure 7C).

O=C(CO)[C@@H]1CCCN1C(=O)[C@@H]1CCCN1C(=O)NCc1ccccc1 [JTP-4819]
clinical outcome (in words) [1]: failed to succeed or provided ambiguous outcomes in their clinical phase

Cc1cc(=O)oc2cc(NC(=O)[C@@H]3CCCN3C(=O)CNC(=O)OCc3ccccc3)ccc12 [Z-Gly-Pro-amino-coumarin] (Cbz-Gly-Pro-{AMC})
K m [2]: 42.4 µM | Vmax [2]: 0.00015 µmol/min | substrate concentration above which precipitation of the substrate occurs [3]: Above 150 µM

CC[C@H](C)[C@@H]1NC(=O)[C@H](C)NC(=O)[C@H](C)NC(=O)[C@H](CO)NC(=O)[C@H]([C@@H](C)CC)NC(=O)[C@@H]2CSSC[C@@H]3NC(=O)[C@H](C(C)C)NC(=O)[C@H](CCCCN)NC(=O)[C@H](CC(N)=O)NC(=O)[C@H](CCCCN)NC(=O)[C@@H]4CSSC[C@H](NC(=O)[C@H](CO)NC(=O)[C@H](CCC(=O)O)NC(=O)CNC(=O)[C@H](CSSC[C@H](NC(=O)CNC1=O)C(=O)N[C@@H](CO)C(=O)N4)NC(=O)[C@@H]1CCCN1C(=O)[C@H]([C@@H](C)CC)NC(=O)[C@H](C(C)C)NC(=O)CNC(=O)[C@H](CC(=O)O)NC(=O)[C@H](CCCNC(=N)N)NC(=O)[C@H](Cc1ccc(O)cc1)NC3=O)C(=O)N[C@@H](C(C)C)C(=O)N[C@@H](Cc1ccccc1)C(=O)N[C@@H]([C@@H](C)CC)C(=O)N1CCC[C@H]1C(=O)N2 [alca 1] (cyclo(AAIGCSCKNKVCYRDGVIPCGESCVFIPCIS); disulfide 5-20, 7-24, 12-29)
IC50 [4]: 8.5 ± 5.9 µM | Hill slope ([4]; sigmoidal inhibition curves of isolated peptides, four parameter non-linear regression, mean ± standard deviation, three or five biological experiments, respectively (alca 1, alca 2)): −1.2 ± 0.1

CC[C@H](C)[C@@H]1NC(=O)[C@@H]2CSSC[C@@H]3NC(=O)[C@H](C(C)C)NC(=O)[C@H](CCCCN)NC(=O)[C@H](CC(N)=O)NC(=O)[C@H](CO)NC(=O)[C@@H]4CSSC[C@H](NC(=O)[C@H](CO)NC(=O)[C@H](CCC(=O)O)NC(=O)CNC(=O)[C@H](CSSC[C@H](NC(=O)CNC(=O)[C@H](CC(C)C)NC(=O)[C@H](C(C)C)NC(=O)CNC(=O)[C@H](CO)NC1=O)C(=O)N[C@@H](CO)C(=O)N4)NC(=O)[C@@H]1CCCN1C(=O)[C@H]([C@@H](C)CC)NC(=O)CNC(=O)[C@H](CC(N)=O)NC(=O)[C@H](CCCNC(=N)N)NC(=O)[C@H](Cc1ccc(O)cc1)NC3=O)C(=O)N[C@@H](C(C)C)C(=O)N[C@@H](Cc1ccccc1)C(=O)N[C@@H]([C@@H](C)CC)C(=O)N1CCC[C@H]1C(=O)N2 [alca 2] (cyclo(CGESCVFIPCISGVLGCSCSNKVCYRNGIP); disulfide 1-17, 5-19, 10-24)
IC50 [4]: 4.4 ± 0.7 µM

O=c1cc(-c2ccccc2)oc2cc(O)c(O)c(O)c12 [balcalein]
POP inhibition (in words) [5]: inhibit POP activity

COc1ccc2cc3[n+](cc2c1OC)CCc1cc2c(cc1-3)OCO2 [berberine]
POP inhibition (in words) [5]: inhibit POP activity

C[N+]1(C)[C@H]2Cc3cc4c(cc3[C@@H]1Cc1cc3c(cc12)COC3)OCO4 [californidine]
POP inhibition (in words) [5]: inhibit POP activity

kalata B1: cyclotide, amongst others in V. tricolor L., Moebius type (cyclo(GLPVCGETCVGGTCNTPGCTCSWPVCTRN); disulfide 14-26, 5-19, 9-21; UniProt P56254 89-117, looked up)
IC50 ([5]; POP, ref Hellinger et al., 2015a, read-out: half maximal inhibitory concentration (IC50)): 5.6 µM
